Test results: patent US9485972B2, “Truncated tau proteins” (Axon Neuroscience SE, priority 2002, dated 2016)
Values belong to the substance of their own block, whether it stands above or below them.

Assays:
[1] = system: purified porcine brain tubulin; experiment: Microtubule assembly assay (MAA) with tau type IA and type IB; format: biochemical; conditions: tau 0.1 mg/ml, tubulin 1 mg/ml, 1 mM GTP, 37° C., 20 min
Method: The physiological function of healthy tau consists in stabilizing microtubules (MTs). This function can be measured by a microtubule assembly assay (MAA). In this examples, the MAA reactions were carried out using three types of tau molecules: normal healthy human tau, recombinant forms of tau type IA (SEQ ID NO: 1) and tau type IB (SEQ ID NO: 4). Normal human tau, tau type IA and type IB were assayed individually in separate reactions. Single preparations of tau at 0.1 mg/ml were mixed with purified porcine brain tubulin at a final concentration of 1 mg/ml and 1 mM GTP, all materials in polymerisation buffer (100 mM PIPES, pH 6.9, 1 mM MgSO4, 2 mM EGTA). Tau was added last to initiate the promotion of MT assembly. After gentle and rapid mixing, the samples were pipetted into quartz microcuvettes and equilibrated at 37° C. in a thermostatically controlled spectrophotometer (Beckman Coulter DU640). The turbidity was continuously monitored at 340 nm in 10 s intervals for a period of 20 min.

[2] = system: neuroblastoma cells expressing tau type IIA; experiment: Oxidative stress (SIN-1) vulnerability, MTT reduction assay; format: cell-based, human; conditions: cells expressing the tau protein vs non-expressing cells, SIN-1 0-3.3 mM, 24 hours
Description: In the present example, the oxidative decomposition of 3-morpholinosydnonimine (SIN-1) was used which generates superoxide anions and nitric oxide, which react and thereby form peroxynitrite. This very reactive radical can further oxidize mainly cellular membrane systems. Persons skilled in art will be able to also apply another sources of oxidative stress to neuroblastoma cells in culture and will be able to obtain the same effect here described by the use on SIN-1.
The effect of vulnerability was tested as follows: • 1. SIN-1 was applied at various concentrations (0-3.32 mM) to human neuronal cell lines expressing tau type IIA protein SEQ ID NO 15 and SEQ ID NO 11, respectively. • 2. […] The EC50 values were compared for neuroblastoma cell lines in the presence or absence of diseased tau type IIA protein expression and the statistical significance of EC50 value differences was assessed by t-test. […]
After five day, SIN-1 was added in concentrations ranging from 0 to 3.3 mM and the plates were incubated for 24 hours. […] The absorbance at 540 nm with background correction at 690 nm was measured on ELISA reader and the background-subtracted values were used for EC50 calculation, as it is well known in the art. […]

microtubules = experiment: Electron microscopy of microtubules formed with tau; format: biochemical
Description: However, Alzheimer tau type II produces pathological microtubules with typical pattern (see FIG. 28C).

tubulin [3] = experiment: Inhibitory effect of AD-brain derived and recombinant tau type IA on normal healthy tau in microtubule assembly assay; format: biochemical; conditions: 0.2 mg/ml type IA or IB, healthy tau 0.1 mg/ml, tubulin 1 mg/ml, preincubation 1 hr at 37° C., 340 nm, 5 min
Description: AD-brain extracts as well as recombinant molecules of tau type IA are capable to inhibit microtubule assembly promotion when using natural healthy tau isoforms. For these experiments healthy human tau was isolated from brains of age matched controls and tau type IA was isolated from brains of AD patients (see Example 6, FIG. 6, fraction #19). Recombinant tau type IA (SEQ ID NO: 1) and type IB (SEQ ID NO:4, negative control) were produced and purified as shown in Example 6. In these experiments, brain-derived healthy tau isoforms (0.1 mg/ml), AD-brain derived or recombinant type IA tau or type IB (0.2 mg/ml) were mixed with tubulin. Each combination was assayed separately. The test mixtures were incubated 1 hr at 37° C. in a water bath with gently shaking. To the mixture kept on ice was added GTP and/or normal tau (final concentration of tubulin is 1 mg/ml and GTP 1 mM) all reagencies in polymerisation buffer (100 mM PIPES, pH 6.9, 1 mM MgSO4, 2 mM EGTA). After gentle and rapid mixing, the samples were pipetted into quartz microcuvettes and equilibrated at 37° C. in a thermostatically controlled spectrophotometer (Beckman Coulter DU640). The turbidity changes were measured at 340 nm in 10 s intervals for a period of 5 min. […] Curve 1 (FIG. 12) represents microtubule assembly promoted by normal tau.

tau monoclonal antibody = experiment: Competitive ELISA, affinity of monoclonal antibody to tau type IA and deletion mutants; format: binding; conditions: read-out: apparent affinity (antigen concentration needed for 50% competition with prototype tau type IA)
Method: FIG. 5: Affinity of monoclonal antibody to diseased tau type IA protein and its deletion mutants. Apparent affinity of monoclonal antibody to diseased tau type IA protein and its deletion mutants. In the first column are listed: the ‘prototype’ tau type IA protein (SEQ ID NO 1) and respective deletion mutants. In the middle column are indicated epitopes of the present invention. Apparent affinities stated in the last column were measured by competitive ELISA, and shown as the concentrations of corresponding antigen needed for 50% competition with the prototype tau type IA protein.
The significance of the ‘conformational region’ in tau type IA (segment A) or its parts was determined by sequential deletion either of whole conformation region (segment A) or its individual parts called epitopes and designated A1-A6. Since the conformation of type IA molecules strongly correlates with their function, the contribution of each epitope (A1-A6) to the overall conformation of the ‘segment A’ was measured on the basis of its reactivity when using a tau monoclonal antibody (FIG. 5).

Human tubulin = experiment: Inhibition of microtubule assembly by tau type IA and IB (tubulin preincubated, then normal human tau); format: biochemical; conditions: tubulin preincubated 1 hr at 37° C. with 0.2 mg/ml type IA or IB; normal human tau 0.1 mg/ml; 340 nm, 5 min
Method: Both tau type IA and IB molecules lack functional activity when applied in a the MT assembly assay (MAA). […] For inhibition of microtubule assembly, recombinant forms of tau type IA (SEQ ID NO:1) and type IB (SEQ ID NO:4) were used. The assembly-inhibition reactions were carried out separately using type IA and type IB proteins. Human tubulin (2 mg/ml) was mixed with either type IA molecules (0.2 mg/ml) or type IB molecules (0.2 mg/ml). The mixtures were incubated 1 hr at 37° C. with gently shaking. To the mixtures kept on ice normal human tau (0.1 mg/ml) and GTP (final concentration of tubulin in the mixture is 1 mg/ml and GTP 1 mM) were added in polymerization buffer (100 mM PIPES, pH 6.9, 1 mM MgSO4, 2 mM EGTA). After gentle and rapid mixing, the samples were pipetted into quartz microcuvettes and equilibrated at 37° C. in a thermostatically controlled spectrophotometer (Beckman Coulter DU640). The turbidity changes were measured at 340 nm in 10 sec intervals over a period of 5 min.

tubulin [4] = experiment: Microtubule assembly with tau type IIA and IIB; format: biochemical; conditions: tau 0.1 mg/ml, tubulin 1 mg/ml, GTP 1 mM, 37° C., 340 nm, 5 min
Method: The microtubule assembly reactions were carried out using three types of molecules: natural healthy human tau isoforms, Alz. tau type IIA (SEQ ID NO: 12) and tau type JIB (SEQ ID NO: 19). Three separate reactions were performed, each with single preparation of respective tau (healthy tau, recombinant tau type IIA or type IIB). Individual tau preparations at 0.1 mg/ml were mixed with tubulin and GTP (final concentration of tubulin is 1 mg/ml and GTP 1 mM), all reagencies in polymerisation buffer (100 mM PIPES, pH 6.9, 1 mM MgSO4, 2 mM EGTA). After gentle and rapid mixing, the samples were pipetted into quartz microcuvettes and equilibrated at 37° C. in a thermostatically controlled spectrophotometer (Beckman Coulter DU640). The turbidity changes were measured at 340 nm in 10 s intervals for a period of 5 min.

Substance: normal healthy tau: tau protein derived from healthy brains [reference compound]
microtubule assembly promotion (turbidity at 340 nm) [1]: microtubule assembly promotion capacity

decrease of resistance of neuroblastoma cells to oxidative stress (EC50 of SIN-1) [2]: 50%
Substance: SEQ ID NO: 18: type IIA double truncated tau, 69-332, R3

Substance: tau 43: shortest four repeat tau isoform, 383 amino acids, missing exons 2 and 3
type of microtubules formed (electron microscopy) (microtubules): forms typical microtubules

IC50 (tau monoclonal antibody): 10 nM
Substance: SEQ ID NO: 1: type IA N- and C-terminally double truncated tau, residues 239-333 of four repeat tau43
inhibition of the capacity of normal tau to promote microtubule assembly (tubulin [3]): inhibit the capacity of normal tau to promote microtubule assembly
microtubule assembly promotion (turbidity at 340 nm) [1]: lacked any MT assembly promotion
inhibition of microtubule assembly promoted by normal human tau (Human tubulin): abolished microtubule assembly

decrease of resistance of neuroblastoma cells to oxidative stress (EC50 of SIN-1) [2]: 50%
Substance: SEQ ID NO: 12: type IIA double truncated tau, 93-333, R4
promotion of microtubule assembly compared to healthy tau (tubulin [4]): extremely high (threefold) promotion

Substance: SEQ ID NO: 4: type IB double truncated tau, 239-326, R4
inhibition of the capacity of normal tau to promote microtubule assembly (tubulin [3]): not able to inhibit
microtubule assembly promotion (turbidity at 340 nm) [1]: lacked any MT assembly promotion
inhibition of microtubule assembly promoted by normal human tau (Human tubulin): does not inhibit the microtubule assembly capacity of normal tau

Substance: SEQ ID NO: 19: type IIB double truncated tau, 6-378, R4
promotion of microtubule assembly compared to healthy tau (tubulin [4]): promote microtubule assembly only to the level seen with healthy tau
